Measured values reported in patent publication US11198710B2, “Transgenic plant having herbicide resistance” (priority 2016, dated 2021).

Legend:
[1] = system: OsGSTF5; assay: Pyroxasulfone metabolizing activity based on fatty acid content in cultured rice cells; type: cell-based; details: cultured rice cells with OsGSTF5 gene; 10^−6 M treatment group
Experimental: (§1) The transgenic cultured rice cells thus prepared were used for liquid culture in the presence of pyroxasulfone. Pyroxasulfone was added to the liquid medium as an acetone solution. The final acetone concentration was 0.1%. When liquid culture was carried out, cultured rice cells transformed with KLB-279 (a plasmid comprising Act1p (rice actin 1 promoter)::sGFP::NOSt incorporated into the MCS of PalSelect R-4) were designated as the control samples. Liquid culture was carried out as described below. […]
(§2) Fatty acid was extracted using undecenoic acid (C11:1) as an internal standard. As analytical standards, Supelco FAME mix containing C14:0, C16:0, C16:1, C18:0, C18:1, C18:2, C18:3, C20:0, C22:0, C22:1, and C24:0 and other fatty acid methyl esters (C11:1, C15:0, C20:1, and C26:0) were used, and calibration curves thereof were prepared, followed by quantification. […] Quantitative and qualitative analyses were carried out as methyl esters, although fatty acid methyl esters were converted into fatty acids at the time of quantitative analysis. […]

[2] = system: OsGSTU5; assay: as above; type: cell-based; details: cultured rice cells with OsGSTU5 gene; 10^−6 M treatment group
Experimental: as §1, §2

[3] = system: TaQ8GTC1-R protein; assay: Glutathione conjugation activity of the TaQ8GTC1-R protein to pyroxasulfone (HPLC); type: biochemical, wheat; details: 30° C., 1 hour
Experimental: The glutathione conjugation activity to pyroxasulfone was measured in a reaction mixture (200 μl in total) containing 50 μl of 100 mM potassium phosphate buffer (pH 6.8), 10 μl of 1 mM pyroxasulfone (acetone solution), 20 μl of 10 mM reduced glutathione (pH 7.0), and 120 μl of the TaQ8GTC1-R protein (PBS solution containing 20% glycerol), the reaction was conducted at 30° C. for 1 hour, the reaction product was filtered through a 0.2-μm filter, and 50 μl of the resulting solution was injected into HPLC. A reaction mixture (prepared with the addition of PBS containing 20% glycerol instead of the TaQ8GTC1-R protein) and another reaction mixture (prepared with the addition of PBS containing 20% glycerol and sterile water instead of the TaQ8GTC1-R protein and glutathione, respectively) were prepared as control reaction mixture. […]
Subsequently, the glutathione conjugation activity of the TaQ8GTC1-R protein to pyroxasulfone was examined. […] The amount of the protein added to the enzyme reaction mixture was determined to be 500 ng since about 50% of a total of 10 nmol of the added herbicides was converted into glutathione conjugates when the enzyme activity of the about 400 ng of TaQ8GTC0 (see Example 1) was inspected under the same conditions.

**Q.** `Cn1nc(C(F)(F)F)c(CS(=O)(=O)C2=NOC(C)(C)C2)c1OC(F)F` [Pyroxasulfone, 3-[5-(difluoromethoxy)-1-methyl-3-(trifluoromethyl)pyrazol-4-ylmethylsulfonyl]-4,5-dihydro-5,5-dimethyl-1,2-oxazole] was tested. Which “pyroxasulfone metabolizing activity (C15:0 and VLCFA contents)” value [1] did it give?
**A.** The value was “no pyroxasulfone metabolizing activity”.

**Q.** And the “pyroxasulfone metabolizing activity (C15:0 and VLCFA contents)” value [2]?
**A.** Its value is “no pyroxasulfone metabolizing activity”.

**Q.** What about the “glutathione conjugation activity to pyroxasulfone” value ([3]; 500 ng TaQ8GTC1-R protein) of the same molecule?
**A.** The value was “did not possess glutathione conjugation activity”.

**Q.** What about the “pyroxasulfone added to the reaction mixture converted into M-15” value ([3]; equivalent in enzyme reaction mixture (500 ng protein) and reaction mixture without enzyme) of the same molecule?
**A.** Its value is “about 3%”.
